Results on ten compounds are retold here after the NIST ThermoML archive (doi:10.1021/je7003512).

For orientation: refractive index means a measure of how strongly the sample bends light. What is called mass density is the mass of a sample divided by its volume.

Numbers after ± are expanded uncertainties.

Data set [1] in a line: refractive index (Na D-line) (dimensionless). The settings on record: 298.15 K; 101.33 kPa; Liquid; Standard Abbe refractometry.
For data set [2] the following is noted: 298.15 K; 101.33 kPa; Liquid.
Data set [3] can be described thus: refractive index (Na D-line) (dimensionless); xn = mol fraction of the nth substance listed. The following applies: 298.15 K, 101 kPa, Liquid, Standard Abbe refractometry.

For `C=COCCC` [propyl vinyl ether], the refractive index in data set [1] amounted to 1.39094 ± 0.00078. The mass density in data set [2] is 762.98 ± 1.2 kg/m3.

With `CC(C)CC(C)(C)C` [2,2,4-trimethylpentane] + C=COCCC, the refractive index in data set [3] (x2 = 0) was determined as 1.39267 ± 0.00078.

Regarding `CCO` [ethanol] + CC(C)CC(C)(C)C, in data set [3] (x1 = 1), the refractive index was 1.36161 ± 0.00078.

On to `CCO` [ethanol] + C=COCCC, for which, in data set [3] (x2 = 0), the refractive index stood at 1.36161 ± 0.00078.

For `C=COCCC` [propyl vinyl ether] + CC(C)CC(C)(C)C, the refractive index in data set [3] (x1 = 0.0503) worked out at 1.39117 ± 0.00078; in data set [3] (x1 = 0.1011) it was 1.39096 ± 0.00078; in data set [3] (x1 = 0.2002), 1.39064 ± 0.00078; in data set [3] (x1 = 0.3002) it was 1.39044 ± 0.00078; in data set [3] (x1 = 0.3995) it was 1.39004 ± 0.00078; in data set [3] (x1 = 0.4998) it was 1.38988 ± 0.00078. The refractive index in data set [3] (x1 = 0.6003) is on record as 1.38967 ± 0.00078; in data set [3] (x1 = 0.7004), 1.38964 ± 0.00078; in data set [3] (x1 = 0.7998) it was 1.38978 ± 0.00078; in data set [3] (x1 = 0.9002), 1.39013 ± 0.00078; in data set [3] (x1 = 0.9503), 1.39035 ± 0.00078; in data set [3] (x1 = 1), 1.39094 ± 0.00078.

Turning to `CC(C)CC(C)(C)C` [2,2,4-trimethylpentane], in data set [1], the refractive index is 1.39267 ± 0.00078. In addition, the mass density in data set [2] came to 688.18 ± 1.3 kg/m3.

On to `CC(C)CC(C)(C)C` [2,2,4-trimethylpentane] + CCO, for which the refractive index in data set [3] (x2 = 0) was found to be 1.39267 ± 0.00078; in data set [3] (x2 = 0.052) it was 1.39087 ± 0.00078; in data set [3] (x2 = 0.1002) it was 1.38995 ± 0.00078; in data set [3] (x2 = 0.199), 1.38855 ± 0.00078; in data set [3] (x2 = 0.2992), 1.38682 ± 0.00078; in data set [3] (x2 = 0.3991), 1.38458 ± 0.00078. Besides, the refractive index in data set [3] (x2 = 0.5005) came out at 1.38228 ± 0.00078; in data set [3] (x2 = 0.6006) it was 1.37947 ± 0.00078; in data set [3] (x2 = 0.7002), 1.37613 ± 0.00078; in data set [3] (x2 = 0.8006), 1.37214 ± 0.00078; in data set [3] (x2 = 0.8998) it was 1.36728 ± 0.00078; in data set [3] (x2 = 0.9503) it was 1.36436 ± 0.00078.

As for `C=COCCC` [propyl vinyl ether] + CCO, the refractive index in data set [3] (x1 = 0.0499) was 1.36372 ± 0.00078; in data set [3] (x1 = 0.1), 1.3655 ± 0.00078; in data set [3] (x1 = 0.2002) it was 1.36949 ± 0.00078; in data set [3] (x1 = 0.2996), 1.37356 ± 0.00078; in data set [3] (x1 = 0.4004), 1.37689 ± 0.00078; in data set [3] (x1 = 0.5006), 1.38018 ± 0.00079. Besides, the refractive index came out at 1.38262 ± 0.00078 in data set [3] (x1 = 0.6005); 1.38517 ± 0.00078 in data set [3] (x1 = 0.7005); 1.38724 ± 0.00078 in data set [3] (x1 = 0.8002); 1.38925 ± 0.00078 in data set [3] (x1 = 0.8997); 1.3901 ± 0.00078 in data set [3] (x1 = 0.9492); 1.39094 ± 0.00078 in data set [3] (x1 = 1).

As to `CO` [methanol], the refractive index in data set [1] amounted to 1.3267 ± 0.00082. Further, the mass density in data set [2] amounted to 786.54 ± 1.2 kg/m3.

Consider `CCO` [ethanol], for which the refractive index in data set [1] was 1.36161 ± 0.00078. In data set [2], the mass density is 785.32 ± 1.2 kg/m3.
